Laboratory results taken from ChEMBL document CHEMBL3988442, “University of Dundee, Small-Polar-MMV Screening Library” (2021).
Several values for one entry are separate records, joined by “and”; a condition that tells them apart may be missing. Identical values can stand only once.

How the values were obtained:
[1] = molecular target: Sialic acid-binding Ig-like lectin 9 (Homo sapiens, UniProt Q9Y336); experiment: Hs-Siglec9 ALPHAscreen SOP 20170721
[2] = microbe, parasite or virus in culture; details: Mycobacterium tuberculosis, 96 h, read-out: pIC50 (converted)
[3] = microbe, parasite or virus in culture; details: Mycobacterium tuberculosis, 72 h, read-out: pIC50 (converted)

Sequence of Sialic acid-binding Ig-like lectin 9 (Q9Y336 whole entry): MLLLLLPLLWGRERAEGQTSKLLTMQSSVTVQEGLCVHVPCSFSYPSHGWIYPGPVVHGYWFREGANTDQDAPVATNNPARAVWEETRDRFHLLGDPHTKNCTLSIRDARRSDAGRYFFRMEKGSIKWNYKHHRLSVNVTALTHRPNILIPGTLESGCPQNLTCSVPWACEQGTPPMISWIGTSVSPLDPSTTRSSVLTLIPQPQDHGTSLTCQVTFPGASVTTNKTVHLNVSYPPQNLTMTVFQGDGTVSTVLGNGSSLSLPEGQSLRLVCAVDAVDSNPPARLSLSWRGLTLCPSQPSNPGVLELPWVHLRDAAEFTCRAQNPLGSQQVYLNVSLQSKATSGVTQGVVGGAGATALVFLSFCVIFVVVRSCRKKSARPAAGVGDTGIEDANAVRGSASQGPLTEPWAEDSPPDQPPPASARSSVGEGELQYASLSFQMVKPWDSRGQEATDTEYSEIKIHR

Structure (SMILES) | IC50 [1] | also measured
CCOC(=O)CNC(=O)c1cccnc1Oc1ccc(Cl)cc1 | > 30.2 µM | –
Cn1ncc2c1C(COCC1CC1)CN(Cc1ccsc1)C2 (stereo unspecified) | > 30.2 µM | IC50 [2]: > 50.1 µM
CN(C)C(=O)COC[C@]12COC[C@H]1CN(Cc1ccoc1)C2 | > 30.2 µM | –
CCn1ncc2c1C(COC)CN(Cc1ccsc1)C2 (stereo unspecified) | > 30.2 µM | –
CCC(=O)N1CCC2(CC1)COc1ccccc1S(=O)(=O)N(C)C2 | > 30.2 µM | –
CCn1ncc2c1C(COC)CN(Cc1ccc(OC)cc1)C2 (stereo unspecified) | > 30.2 µM | –
COCCNC(=O)c1nnn(Cc2ccccc2)c1OC | > 30.2 µM | –
CCNC(=O)c1nnn(Cc2ccccc2)c1OC | > 30.2 µM | –
CCN(CC)C(=O)c1nnn(Cc2ccccc2)c1OC | > 30.2 µM | –
COc1c(C(=O)NCc2cccnc2)nnn1Cc1ccc(C)cc1 | > 30.2 µM | –
FC(F)(F)c1cc(C2CCCN(c3ncccn3)C2)n2ccnc2n1 (stereo unspecified) | > 30.2 µM | –
CCc1cc(C(=O)N2CCCC(c3cc(=O)nc4n3CCC4)C2)no1 (stereo unspecified) | > 30.2 µM | –
CC(C)c1cc(C(=O)N2CCCC(c3cc(=O)nc4n3CCC4)C2)no1 (stereo unspecified) | > 30.2 µM | –
CC(C)CCN1CCC2(CC1)NCc1ccccc1NC2=O | > 30.2 µM | –
O=C1Nc2ccccc2CNC12CCN(CC1CCNC1)CC2 (stereo unspecified) | > 30.2 µM | –
O=C1Nc2ccccc2CNC12CCN(CC1CCCC1)CC2 | > 30.2 µM | –
O=C1Nc2ccccc2CNC12CCN(CC1CC1)CC2 | > 30.2 µM | –
O=C1Nc2ccccc2CN(CC2CCCC2)C12CCNC2 (stereo unspecified) | > 30.2 µM | IC50 [3]: 22.7 µM; IC50 [2]: > 50.1 µM
O=C1Nc2ccccc2CN(CC2CC2)C12CCNC2 (stereo unspecified) | > 30.2 µM | –
CN1Cc2ccccc2NC(=O)C12CCNC2 (stereo unspecified) | > 30.2 µM | –
CCCN1Cc2ccccc2NC(=O)C12CCNC2 (stereo unspecified) | > 30.2 µM | –
c1cc2occc2c(N2CCCC(c3nncn3C3CC3)C2)n1 (stereo unspecified) | > 30.2 µM | –
Cc1cc(N2CCCC(c3nncn3C3CC3)C2)ncn1 (stereo unspecified) | > 30.2 µM | –
Cc1ccnc(N2CCCC(c3nncn3C3CC3)C2)n1 (stereo unspecified) | > 30.2 µM | –
Cc1ccnc(NC(=O)c2c(C)oc(C)c2C)c1 | > 30.2 µM | –

Structure (SMILES) | IC50 [1] | also measured
Cc1ccnc(NC(=O)c2cc(C)oc2C)c1 | > 30.2 µM | –
Cc1oc(C)c(C(=O)Nc2ccccn2)c1C | > 30.2 µM | –
O=C(NCCc1nncn1C1CC1)C1SCCc2sccc21 (stereo unspecified) | > 30.2 µM | –
COCCN(CCOC)C(=O)c1ccoc1C | > 30.2 µM | –
Cc1cc(C(=O)N2CCNC(=O)CC2)c(C)n1CC(F)(F)F | > 30.2 µM | –
CCn1c(C)cc(C(=O)N2CCC(NC(=O)c3cc(C)no3)CC2)c1C | > 30.2 µM | –
CCn1c(C)cc(C(=O)N2CCC(NC(=O)c3ccc(C)o3)CC2)c1C | > 30.2 µM | –
CCn1c(C)cc(C(=O)N2CCC(Nc3cccnn3)CC2)c1C | > 30.2 µM | –
COC(=O)C(O)C1CCN(CCc2ccncc2)CC1 (stereo unspecified) | > 30.2 µM | –
COC(=O)C(O)C1CCN(CCc2ccccn2)CC1 (stereo unspecified) | > 30.2 µM | –
COC(=O)C(O)C1CCN(CCc2ccc(C)cc2)CC1 (stereo unspecified) | > 30.2 µM | –
CC(=O)NCCCSC1CCN(c2ccccc2Cl)C1=O (stereo unspecified) | > 30.2 µM | –
CC(=O)NCCCSC1CCN(c2c(F)cccc2F)C1=O (stereo unspecified) | > 30.2 µM | –
CC(=O)NCCCSC1CCN(c2ccccc2F)C1=O (stereo unspecified) | > 30.2 µM | –
Cc1ccsc1C(=O)N1CCC(Nc2cccnc2)CC1 | 14.5 µM and > 30.2 µM | –
Cc1cc(C(=O)N2CCC(Nc3cccnc3)CC2)c(C)s1 | > 30.2 µM | –
COc1cc(C(=O)N2CCC(Nc3cccnc3)CC2)ccc1C | > 30.2 µM | –
COc1ccc(OC)c(C(=O)N2CCC(Nc3cccnc3)CC2)c1 | > 30.2 µM | –
Cc1cc(C(=O)NC2CC(=O)N(C(C)C)C2=O)c(C)n1C(C)C (stereo unspecified) | > 30.2 µM | –
CCc1cc(N2CCCC(c3noc(CC)n3)C2)ncn1 (stereo unspecified) | > 30.2 µM | –
CCc1nc(C2CCCN(c3ncccn3)C2)no1 (stereo unspecified) | > 30.2 µM | –
CCc1nc(C2CCCN(c3ncc(Br)cn3)C2)no1 (stereo unspecified) | > 30.2 µM | –
Cc1nc(C2CCCN(c3ncc(Br)cn3)C2)no1 (stereo unspecified) | > 30.2 µM | –
CCc1nc(C2CCCN2c2ncc(Br)cn2)no1 (stereo unspecified) | > 30.2 µM | –
CCc1nc(C2CCCN(c3nccc(C)n3)C2)no1 (stereo unspecified) | > 30.2 µM | –

Structure (SMILES) | IC50 [1] | also measured
COC(=O)C(O)C1CCN(Cc2cccc(-n3cccn3)c2)CC1 (stereo unspecified) | > 30.2 µM | –
Cc1cc(S(=O)(=O)NCC(C)(O)CN(C)C)c(F)cc1F (stereo unspecified) | > 30.2 µM | –
CC(C)n1cnnc1C1CCCN(S(=O)(=O)CCCC#N)C1 (stereo unspecified) | > 30.2 µM | –
CC(C)n1cnnc1C1CCCN(S(=O)(=O)CCCF)C1 (stereo unspecified) | > 30.2 µM | –
CC(C)CCS(=O)(=O)N1CCCC(c2nncn2C(C)C)C1 (stereo unspecified) | > 30.2 µM | –
CC(C)n1cnnc1C1CCCN(S(=O)(=O)c2c[nH]cn2)C1 (stereo unspecified) | > 30.2 µM | –
CC(C)n1cnnc1C1CCCN(S(=O)(=O)CC2CCCC2)C1 (stereo unspecified) | > 30.2 µM | –
CCN(C(=O)c1cc(C)oc1C)C1CC1 | > 30.2 µM | –
Cc1cc(S(=O)(=O)N(CCO)C2CC2)ccc1F | > 30.2 µM | –
O=C(NCCc1nncn1C1CC1)c1cnn(Cc2ccccc2)c1 | > 30.2 µM | –
Cc1cc(C(=O)N2CCCS2(=O)=O)c(C)o1 | > 30.2 µM | –
Cc1occc1C(=O)N1CCCS1(=O)=O | > 30.2 µM | –
O=C(NCC1(O)CCC1)c1cccc(-n2cccn2)c1 | > 30.2 µM | –
CCC(=O)NCC(=O)NCc1cc(Br)ccc1OC(F)F | > 30.2 µM | –
CC(c1ccc(Cl)cc1)N1CCN(CCNS(C)(=O)=O)CC1 (stereo unspecified) | > 30.2 µM | –
COc1cc(C)sc1C(=O)N1CCC(Nc2cccnc2)CC1 | > 30.2 µM | IC50 [3]: > 50.1 µM; IC50 [2]: > 50.1 µM
Cc1nc(C)c(C(=O)N2CCC(Nc3cccnc3)CC2)s1 | 9.22 µM and 7.13 µM and 9.36 µM and 3.87 µM | –
Cc1nccc(N2C[C@@H](CN3CCCC3)[C@@H](CO)C2)n1 | > 30.2 µM | –
COCc1cc(N2CCN(C3CCCCC3)CC2)n2nccc2n1 | > 30.2 µM | –
CCc1cc(N2CCC(N3CCSCC3)CC2)n2nccc2n1 | > 30.2 µM | –
CN1CCCN(C[C@@H]2CN(c3nc(C(N)=O)cs3)C[C@@H]2CO)CC1 | > 30.2 µM | –
CCc1cc(N2CCN3CCCCC3C2)n2nccc2n1 (stereo unspecified) | > 30.2 µM | –
Cc1nc(CC(=O)NCc2csc(N3CCCC3)n2)cs1 | > 30.2 µM | –
NC(=O)c1csc(N2C[C@@H](CN3CCC(O)CC3)[C@@H](CO)C2)n1 | > 30.2 µM | –
FC(F)(F)CCc1ccnc(NCc2csc(N3CCOCC3)n2)n1 | > 30.2 µM | –

Structure (SMILES) | IC50 [1] | also measured
Nc1nccc(N2C[C@@H](CN3CCCCC3)[C@@H](CO)C2)n1 | > 30.2 µM | –
Cc1cc(C(=O)N2CC[C@](C)(O)[C@H](C)C2)c(C)n1C | > 30.2 µM | –
CCOc1cccc(C2CC(=O)NCc3nc(N4CCCC4)sc32)c1 (stereo unspecified) | > 30.2 µM | –
CCC(C(=O)NCc1csc(N2CCOCC2)n1)n1cccn1 (stereo unspecified) | > 30.2 µM | –
CCn1ncnc1C1CC(=O)NCc2nc(N3CCOCC3)sc21 (stereo unspecified) | > 30.2 µM | –
CNc1ncc(CN(C)C(=O)c2cccc(-n3cccn3)c2)cn1 | > 30.2 µM | –
NC(=O)c1csc(N2C[C@@H](CN3CCCCC3)[C@@H](CO)C2)n1 | > 30.2 µM | –
CCc1cc(N2CC(N3CCCCC3C)C2)n2nccc2n1 (stereo unspecified) | > 30.2 µM | –
CCn1ncnc1C1CC(=O)NCc2nc(N3CCCC3)sc21 (stereo unspecified) | > 30.2 µM | –
Cc1ncsc1CCC(=O)NCc1csc(N2CCCC2)n1 | > 30.2 µM | –
CC(C)n1cnnc1CCNCc1cn(CCC(N)=O)c2ccccc12 | > 30.2 µM | –
CC(=O)N[C@@H]1CN(c2nc(C(N)=O)cs2)C[C@H]1c1ccc(C)o1 | > 30.2 µM | –
NC(=O)c1csc(N2C[C@@H](CN3CCOCC3)[C@@H](CO)C2)n1 | > 30.2 µM | –
Cc1nn(C)c(C)c1CCC(=O)NCc1csc(N2CCCC2)n1 | > 30.2 µM | –
CSc1nccc(N2C[C@@H](CN3CCCCC3)[C@@H](CO)C2)n1 | > 30.2 µM | –
COc1cc(C)sc1C(=O)N1CC(c2cccnc2)C1 | > 30.2 µM | –
CCn1cnnc1C1CCN(C(=O)c2cc(C)n(CC)c2C)CC1 | > 30.2 µM | –
Cc1oc(C)c(C(=O)NCc2cccnc2)c1C | > 30.2 µM | –
Cc1cnn(CC2CCCN2C(=O)c2cccc(-n3ccc(C)n3)c2)c1 (stereo unspecified) | > 30.2 µM | –
CC(C)n1cnnc1C1CCCN(C(=O)COCc2ccccc2)C1 (stereo unspecified) | > 30.2 µM | –
Cc1cc(S(=O)(=O)NC(C)(C)CN)c(F)cc1F | > 30.2 µM | –
Cc1cc(S(=O)(=O)NCC(C)(C)N)c(F)cc1F | > 30.2 µM | –
CCn1nnc2c1C(COC)CN(Cc1ccsc1)C2 (stereo unspecified) | > 30.2 µM | –
Cc1nc(COC[C@]23COC[C@H]2CN(Cc2ccoc2)C3)cs1 | > 30.2 µM | –
CN(C)C(=O)COC[C@]12COC[C@H]1CN(CC1CCC1)C2 | > 30.2 µM | –

Structure (SMILES) | IC50 [1] | also measured
c1csc(CN2Cc3nccn3CC(Cn3cncn3)C2)n1 (stereo unspecified) | > 30.2 µM | –
CC(=O)N1Cc2ccnn2CC(C(=O)NCc2cccnc2)C1 (stereo unspecified) | > 30.2 µM | –
Cc1occc1C(=O)N1CCO[C@H]2[C@H](Oc3cccnc3)CC[C@@H]21 | > 30.2 µM | –
O=C(C1CCOCC1)N1CCO[C@H]2[C@H](Oc3ccccn3)CC[C@@H]21 | > 30.2 µM | –
Cc1occc1C(=O)N1C[C@H](Oc2ccccn2)[C@H]2OCCC[C@H]21 | > 30.2 µM | –
Cc1cc(C(=O)N2CCO[C@H]3[C@H](Oc4ccccn4)CC[C@@H]32)c(C)[nH]1 | > 30.2 µM | –
Cc1occc1C(=O)N1CCO[C@H]2[C@H](OCc3ccccn3)CC[C@@H]21 | > 30.2 µM | –
O=C(c1cscn1)N1CCO[C@H]2[C@@H](Oc3ccccn3)CC[C@@H]21 | > 30.2 µM | –
c1cnc(N2CCC3(CCN(CC4CCOC4)CC3)C2)nc1 (stereo unspecified) | > 30.2 µM | –
c1cnc(N2CCCC3(CCN(CC4CCOC4)CC3)C2)nc1 (stereo unspecified) | > 30.2 µM | –
c1cnc(N2CCC3(CCCN(CC4CC4)C3)CC2)nc1 | > 30.2 µM | –
O=C(N1CCCC1)N1CCO[C@H]2[C@@H](Oc3ccccn3)CC[C@@H]21 | > 30.2 µM | –
Cc1occc1C(=O)N1CCO[C@H]2[C@@H](Oc3ccccn3)CC[C@@H]21 | > 30.2 µM | –
O=C(C1=CCCC1)N1CCO[C@H]2[C@@H](Oc3ccccn3)CC[C@@H]21 | > 30.2 µM | –
CS(=O)(=O)N1Cc2ccnn2CC(C(=O)NCc2cccnc2)C1 (stereo unspecified) | > 30.2 µM | –
Cc1cncc(C(=O)N2CCO[C@H]3[C@H](Oc4ccccn4)CC[C@@H]32)c1 | > 30.2 µM | –
c1cnc(N2CCC3(CCN(CC4CCCC4)CC3)C2)nc1 | > 30.2 µM | –
c1cnc(N2CCC3(CCN(CC4CCOCC4)CC3)C2)nc1 | > 30.2 µM | –
COc1ccc([C@@H]2CN(Cc3ccncc3)C[C@H]2c2cc[nH]n2)cc1 | > 30.2 µM | –
c1ccc([C@@H]2CN(Cc3cccnc3)C[C@H]2c2cc[nH]n2)cc1 | > 30.2 µM | –
c1ccc([C@@H]2CN(Cc3ccncc3)C[C@H]2c2cc[nH]n2)cc1 | > 30.2 µM | –
